Reference: PubChem BioAssay AID1918995 (Molecular Pharmacology Branch, DTP, NCI, 2023)

Test system: 324938-238-R-J1-PDC complex spheroid growth, % test/control
Test: Anticancer human tumor 324938-238-R-J1-PDC patient-derived bladder carcinoma cell line growth inhibition [AhR]
Conditions: for IC50: curve of first compound; for viability, T/C: stronger effect = lower value
Method in brief: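 Agents were dosed in half-log steps down from roughly clinical Cmax, or from 10 microM where Cmax was unknown, alone and with AhR antagonists. Read-out: percent test/control growth of tumor spheroids containing HUVEC and MSC stromal cells.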

[1] = second compound 0.1 µM, first compound 0.0316 µM
[2] = second compound 0.1 µM, first compound 0.1 µM
[3] = second compound 0.1 µM, first compound 0.316 µM
[4] = second compound 0.1 µM, first compound 1 µM
[5] = second compound 0.1 µM, first compound 3.16 µM
[6] = second compound 0.1 µM, first compound 10 µM
[7] = second compound 0.316 µM, first compound 0.0316 µM
[8] = second compound 0.316 µM, first compound 0.1 µM
[9] = second compound 0.316 µM, first compound 0.316 µM
[10] = second compound 0.316 µM, first compound 1 µM
[11] = second compound 0.316 µM, first compound 3.16 µM
[12] = second compound 0.316 µM, first compound 10 µM
[13] = second compound 1 µM, first compound 0.0316 µM
[14] = second compound 1 µM, first compound 0.1 µM
[15] = second compound 1 µM, first compound 0.316 µM
[16] = second compound 1 µM, first compound 1 µM
[17] = second compound 1 µM, first compound 3.16 µM
[18] = second compound 1 µM, first compound 10 µM
[19] = second compound 3.16 µM, first compound 0.0316 µM
[20] = second compound 3.16 µM, first compound 0.1 µM
[21] = second compound 3.16 µM, first compound 0.316 µM
[22] = second compound 3.16 µM, first compound 1 µM
[23] = second compound 3.16 µM, first compound 3.16 µM
[24] = second compound 3.16 µM, first compound 10 µM
[25] = second compound 10 µM, first compound 0.0316 µM
[26] = second compound 10 µM, first compound 0.1 µM
[27] = second compound 10 µM, first compound 0.316 µM
[28] = second compound 10 µM, first compound 1 µM
[29] = second compound 10 µM, first compound 3.16 µM
[30] = second compound 10 µM, first compound 10 µM
[31] = second compound 0.1 µM, first compound 0.00316 µM
[32] = second compound 0.1 µM, first compound 0.01 µM
[33] = second compound 0.316 µM, first compound 0.00316 µM
[34] = second compound 0.316 µM, first compound 0.01 µM
[35] = second compound 1 µM, first compound 0.00316 µM
[36] = second compound 1 µM, first compound 0.01 µM
[37] = second compound 3.16 µM, first compound 0.00316 µM
[38] = second compound 3.16 µM, first compound 0.01 µM
[39] = second compound 10 µM, first compound 0.00316 µM
[40] = second compound 10 µM, first compound 0.01 µM
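Further: spheroids exposed to agents for seven days before viability read.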

| Compound | IC50 (second compound 0.1 µM) | IC50 (second compound 0.316 µM) | IC50 (second compound 1 µM) | IC50 (second compound 3.16 µM) | IC50 (second compound 10 µM) | viability, T/C [1] | viability, T/C [2] | viability, T/C [3] | viability, T/C [4] | viability, T/C [7] | viability, T/C [8] | viability, T/C [9] | viability, T/C [10] | viability, T/C [13] | viability, T/C [14] | viability, T/C [15] | viability, T/C [19] | viability, T/C [20] | viability, T/C [25] | viability, T/C [26] | also measured |
| --- | --- | --- | --- | --- | --- | --- | --- | --- | --- | --- | --- | --- | --- | --- | --- | --- | --- | --- | --- | --- | --- |
| CC(C)c1c(-c2ccccc2)nc2c(C#N)c[nH]n2c1=O + Cc1ccccc1N=Nc1ccc(NC(=O)c2ccnn2C)c(C)c1 | > 10 µM | > 10 µM | > 10 µM | > 10 µM | > 10 µM | 101% | 91.3% | 95.5% | 83.9% | 87.3% | 92.9% | 90.7% | 81.6% | 80.1% | 91.8% | 76% | 80.1% | 81.4% | 70.8% | 75.2% | viability, T/C [5]: 92.1%; viability, T/C [6]: 73.9%; viability, T/C [11]: 75.3%; viability, T/C [12]: 68%; viability, T/C [16]: 80.5%; viability, T/C [17]: 68.3%; viability, T/C [18]: 65.8%; viability, T/C [21]: 64.9%; viability, T/C [22]: 67.5%; viability, T/C [23]: 65.7%; viability, T/C [24]: 56%; viability, T/C [27]: 79.4%; viability, T/C [28]: 65.1%; viability, T/C [29]: 54.4%; viability, T/C [30]: 61% |
| CC[C@@]1(O)C(=O)OCc2c1cc1n(c2=O)Cc2cc3c(CN(C)C)c(O)ccc3nc2-1 + Cc1cncc(-c2nc(NCCc3c[nH]c4ccccc34)c3ncn(C(C)C)c3n2)c1 | > 0.1 µM | > 0.1 µM | > 0.1 µM | > 0.1 µM | < 0.000316 µM | 83.3% | 102% |  |  | 77.8% | 93.5% |  |  | 87.6% | 96.9% |  | 79% | 79.4% | 3.79% | 10.3% | viability, T/C (second compound 0.1 µM, first compound 0.000316 µM): 108%; viability, T/C (second compound 0.1 µM, first compound 0.001 µM): 151%; viability, T/C [31]: 99.7%; viability, T/C [32]: 117%; viability, T/C (second compound 0.316 µM, first compound 0.000316 µM): 70.6%; viability, T/C (second compound 0.316 µM, first compound 0.001 µM): 91.9%; viability, T/C [33]: 124%; viability, T/C [34]: 93.2%; viability, T/C (second compound 1 µM, first compound 0.000316 µM): 116%; viability, T/C (second compound 1 µM, first compound 0.001 µM): 110%; viability, T/C [35]: 114%; viability, T/C [36]: 93.4%; viability, T/C (second compound 3.16 µM, first compound 0.000316 µM): 97.8%; viability, T/C (second compound 3.16 µM, first compound 0.001 µM): 71.7%; viability, T/C [37]: 87.3%; viability, T/C [38]: 90.9%; viability, T/C (second compound 10 µM, first compound 0.000316 µM): 5.23%; viability, T/C (second compound 10 µM, first compound 0.001 µM): 3.61%; viability, T/C [39]: 4.43%; viability, T/C [40]: 3.43% |
| COc1cc(C2c3cc4c(cc3C(OC3OC5COC(C)OC5C(O)C3O)C3COC(=O)C23)OCO4)cc(OC)c1O (stereo not given) + Cc1cncc(-c2nc(NCCc3c[nH]c4ccccc34)c3ncn(C(C)C)c3n2)c1 | > 10 µM | > 10 µM | > 10 µM | > 10 µM | < 0.0316 µM | 104% | 113% | 96.8% | 126% | 109% | 128% | 109% | 87.2% | 126% | 102% | 84.9% | 86% | 95.2% | 3.73% | 10.1% | viability, T/C [5]: 106%; viability, T/C [6]: 123%; viability, T/C [11]: 95.1%; viability, T/C [12]: 87.8%; viability, T/C [16]: 107%; viability, T/C [17]: 103%; viability, T/C [18]: 106%; viability, T/C [21]: 94.2%; viability, T/C [22]: 81.8%; viability, T/C [23]: 106%; viability, T/C [24]: 81.6%; viability, T/C [27]: 6.66%; viability, T/C [28]: 4%; viability, T/C [29]: 6.93%; viability, T/C [30]: 15% |
| Nc1ncn(C2CC(O)C(CO)O2)c(=O)n1 (stereo not given) + Cc1cncc(-c2nc(NCCc3c[nH]c4ccccc34)c3ncn(C(C)C)c3n2)c1 | > 1 µM | > 1 µM | > 1 µM | > 1 µM | < 0.00316 µM | 101% | 85.2% | 128% | 103% | 135% | 92.9% | 80.8% | 161% | 127% | 125% | 84.8% | 104% | 76.9% | 6.15% | 3.98% | viability, T/C [31]: 120%; viability, T/C [32]: 86.4%; viability, T/C [33]: 111%; viability, T/C [34]: 103%; viability, T/C [35]: 93.4%; viability, T/C [36]: 107%; viability, T/C [16]: 98.2%; viability, T/C [37]: 83.5%; viability, T/C [38]: 76.6%; viability, T/C [21]: 100%; viability, T/C [22]: 112%; viability, T/C [39]: 4.98%; viability, T/C [40]: 1.77%; viability, T/C [27]: 4.54%; viability, T/C [28]: 7.74% |

Second part, led by results:

| IC50 (second compound 0.1 µM) | IC50 (second compound 0.316 µM) | IC50 (second compound 1 µM) | IC50 (second compound 3.16 µM) | IC50 (second compound 10 µM) | Compound | viability, T/C [1] | viability, T/C [2] | viability, T/C [3] | viability, T/C [4] | viability, T/C [7] | viability, T/C [8] | viability, T/C [9] | viability, T/C [10] | viability, T/C [13] | viability, T/C [14] | viability, T/C [15] | viability, T/C [19] | viability, T/C [20] | viability, T/C [25] | viability, T/C [26] | also measured |
| --- | --- | --- | --- | --- | --- | --- | --- | --- | --- | --- | --- | --- | --- | --- | --- | --- | --- | --- | --- | --- | --- |
| 0.336 µM | 0.367 µM | 0.291 µM | 0.181 µM | < 0.0316 µM | COc1cccc2c1C(=O)c1c(O)c3c(c(O)c1C2=O)CC(O)(C(=O)CO)CC3OC1CC(N)C(O)C(C)O1 (stereo not given) + Cc1cncc(-c2nc(NCCc3c[nH]c4ccccc34)c3ncn(C(C)C)c3n2)c1 | 84.2% | 95.7% | 52.8% | 0.98% | 65.7% | 94.2% | 57.3% | 0.94% | 90.7% | 102% | 46.3% | 81.8% | 62.1% | 4.55% | 12.7% | viability, T/C [5]: 0.76%; viability, T/C [6]: 0.41%; viability, T/C [11]: 0.57%; viability, T/C [12]: 0.38%; viability, T/C [16]: 0.36%; viability, T/C [17]: 1.27%; viability, T/C [18]: 0.47%; viability, T/C [21]: 38.9%; viability, T/C [22]: 0.31%; viability, T/C [23]: 1.98%; viability, T/C [24]: 0.43%; viability, T/C [27]: 1.27%; viability, T/C [28]: 0.29%; viability, T/C [29]: 0.45%; viability, T/C [30]: 0.62% |
| > 10 µM | > 10 µM | > 10 µM | > 10 µM | < 0.0316 µM | Nc1ccn(C2OC(CO)C(O)C2(F)F)c(=O)n1 (stereo not given) + Cc1cncc(-c2nc(NCCc3c[nH]c4ccccc34)c3ncn(C(C)C)c3n2)c1 | 105% | 81.5% | 88.5% | 51.6% | 79.4% | 61.6% | 79.2% | 87.2% | 95.1% | 65.9% | 79.8% | 95.2% | 74.3% | 45.5% | 53.7% | viability, T/C [5]: 83.9%; viability, T/C [6]: 84.1%; viability, T/C [11]: 93.3%; viability, T/C [12]: 111%; viability, T/C [16]: 84.1%; viability, T/C [17]: 69.6%; viability, T/C [18]: 84.5%; viability, T/C [21]: 119%; viability, T/C [22]: 84.3%; viability, T/C [23]: 120%; viability, T/C [24]: 72.5%; viability, T/C [27]: 49.7%; viability, T/C [28]: 49.3%; viability, T/C [29]: 62.2%; viability, T/C [30]: 62.7% |
